Source: ChEMBL document CHEMBL3813680, “Discovery of a 2-hydroxyacetophenone derivative as an outstanding linker to enhance potency and β-selectivity of liver X receptor agonist” (Bioorg Med Chem, 2016)

Experiments:
Mus musculus [1] = test: Antiatherosclerosis activity in LDL receptor knock out mouse model assessed as increase in HDL-C levels at 1 mg/kg, po by HPLC analysis relative to control; assay type: functional
Mus musculus [2] = test: Upregulation of ABCA1 mRNA expression in LDL receptor knock-out mouse blood at 3 mg/kg, po relative to control; assay type: functional
Mus musculus [3] = test: Upregulation of SREBP-1c expression in LDL receptor knock-out mouse liver at 3 mg/kg, po relative to control; assay type: functional
Mus musculus [4] = test: Antiatherosclerosis activity in LDL receptor knock out mouse model assessed as decrease in LDL-C levels at 3 mg/kg, po by HPLC analysis relative to control; assay type: functional; set-up: scale not given: the % may be the effect or the level left
[5] = AUC in mouse plasma at 10 mg/kg, po measured up to 24 hrs by HPLC-LC-MS/MS analysis; assay type: ADME, organism-based; set-up: time < 24 hr, dose 10 mg/kg, route oral
Mus musculus [6] = test: Upregulation of ABCA1 mRNA expression in LDL receptor knock-out mouse blood at 1 mg/kg, po relative to control; assay type: functional
[7] = target: T1, Oxysterols receptor LXR-alpha (Homo sapiens, UniProt Q13133); test: Agonist activity at GAL4 fused LXRalpha (unknown origin) transfected in CHOK1 cells after 24 hrs by luciferase reporter gene assay
T1 sequence (Q13133 whole entry): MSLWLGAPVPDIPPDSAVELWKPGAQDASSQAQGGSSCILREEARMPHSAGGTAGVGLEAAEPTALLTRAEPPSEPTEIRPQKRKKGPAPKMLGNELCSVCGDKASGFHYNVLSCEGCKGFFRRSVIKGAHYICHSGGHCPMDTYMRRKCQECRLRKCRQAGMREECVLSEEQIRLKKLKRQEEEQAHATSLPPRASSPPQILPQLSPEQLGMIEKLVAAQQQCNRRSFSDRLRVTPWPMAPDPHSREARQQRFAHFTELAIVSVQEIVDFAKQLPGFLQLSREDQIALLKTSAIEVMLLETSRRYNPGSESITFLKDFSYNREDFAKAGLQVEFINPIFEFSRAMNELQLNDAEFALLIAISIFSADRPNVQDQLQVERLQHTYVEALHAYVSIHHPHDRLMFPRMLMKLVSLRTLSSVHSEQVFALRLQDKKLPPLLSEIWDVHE

[8] = Cmax in mouse plasma at 10 mg/kg, po measured up to 24 hrs by HPLC-LC-MS/MS analysis; assay type: ADME, organism-based; set-up: dose 10 mg/kg, route oral
Mus musculus [9] = test: Antiatherosclerosis activity in LDL receptor knock out mouse model assessed as decrease in area of lipid accumulation at 3 mg/kg, po by HPLC analysis relative to control; assay type: functional; set-up: scale not given: the % may be the effect or the level left
Mus musculus [10] = test: Antiatherosclerosis activity in LDL receptor knock out mouse model assessed as increase in TC levels at 1 mg/kg, po by HPLC analysis relative to control; assay type: functional
[11] = target: T2, Oxysterols receptor LXR-beta (Homo sapiens, UniProt P55055); test: Agonist activity at GAL4 fused LXRbeta-LBD (unknown origin) transfected in CHOK1 cells after 24 hrs by luciferase reporter gene assay
T2 sequence (P55055 whole entry): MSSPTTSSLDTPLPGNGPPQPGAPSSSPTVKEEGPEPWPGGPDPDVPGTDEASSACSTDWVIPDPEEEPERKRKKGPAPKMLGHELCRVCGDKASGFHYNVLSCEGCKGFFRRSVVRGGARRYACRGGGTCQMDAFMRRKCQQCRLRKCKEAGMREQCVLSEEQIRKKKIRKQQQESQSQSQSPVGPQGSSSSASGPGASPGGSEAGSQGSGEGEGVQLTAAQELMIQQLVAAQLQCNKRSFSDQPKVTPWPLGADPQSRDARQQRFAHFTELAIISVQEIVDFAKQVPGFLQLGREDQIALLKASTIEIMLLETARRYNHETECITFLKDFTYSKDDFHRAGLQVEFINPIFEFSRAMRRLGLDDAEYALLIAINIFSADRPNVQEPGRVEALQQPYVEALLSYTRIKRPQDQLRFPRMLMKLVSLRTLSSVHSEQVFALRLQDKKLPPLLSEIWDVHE

Mus musculus [12] = test: Antiatherosclerosis activity in LDL receptor knock out mouse model assessed as increase in TG levels at 3 mg/kg, po by HPLC analysis relative to control; assay type: functional
Mus musculus [13] = test: Antiatherosclerosis activity in LDL receptor knock out mouse model assessed as decrease in area of lipid accumulation at 1 mg/kg, po by HPLC analysis relative to control; assay type: functional; set-up: scale not given: the % may be the effect or the level left
Mus musculus [14] = test: Antiatherosclerosis activity in LDL receptor knock out mouse model assessed as increase in TG levels at 1 mg/kg, po by HPLC analysis relative to control; assay type: functional
Mus musculus [15] = test: Antiatherosclerosis activity in LDL receptor knock out mouse model assessed as increase in TC levels at 3 mg/kg, po by HPLC analysis relative to control; assay type: functional
Mus musculus [16] = test: Antiatherosclerosis activity in LDL receptor knock out mouse model assessed as increase in HDL-C levels at 3 mg/kg, po by HPLC analysis relative to control; assay type: functional
Mus musculus [17] = test: Antiatherosclerosis activity in LDL receptor knock out mouse model assessed as LDL-C levels at 1 mg/kg, po by HPLC analysis relative to control; assay type: functional
Mus musculus [18] = test: Upregulation of SREBP-1c expression in LDL receptor knock-out mouse liver at 1 mg/kg, po relative to control; assay type: functional

## CCCc1cc(C(O)(C(F)(F)F)C(F)(F)F)ccc1Oc1ccc(C(=O)CN2C(=O)NC(C)(c3ccc(OC(C)C)cn3)C2=O)c(O)c1 (single isomer, unassigned; (-))
Mus musculus [1]
  Activity: 115%
Mus musculus [2]
  fold change (FC): 3
Mus musculus [3]
  fold change (FC): 1.5
Mus musculus [4]
  Activity: 97%
[5]
  AUC at 24 h: 3030 ng·h/mL
Mus musculus [6]
  fold change (FC): 2.1
[7]
  EC50: 200 nM
[8]
  Cmax: 503 ng/mL
Mus musculus [9]
  Activity: 59%
Mus musculus [10]
  Activity: 111%
[11]
  EC50: 7 nM
Mus musculus [12]
  Activity: 166%
Mus musculus [13]
  Activity: 62%
Mus musculus [14]
  Activity: 152%
Mus musculus [15]
  Activity: 102%
Mus musculus [16]
  Activity: 116%
Mus musculus [17]
  Activity: 108%
Mus musculus [18]
  fold change (FC): 1.2
